# Assay results taken from US9255090B2, “Heterocyclyl derivatives and their use as prostaglandin D2 receptor modulators” (Actelion Pharmaceuticals Ltd., priority 2012, dated 2016).
# pIC50: −log10 of the molar value.
# Assays:
# hCRTH2 receptor = hCRTH2 receptor (Homo sapiens (Human), UniProt Q9Y5Y4); assay: hCRTH2 receptor membranes radioligand (3H-PGD2) displacement assay; assay type: binding; details: 3H-PGD2 radioligand displacement, HEK293-hCRTH2 membranes
# In short: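 HEK293-hCRTH2 membranes, 20 μg/well; 3H-PGD2 added at 2.5 nM; binding buffer 50 mM Tris, 10 mM MnCl2, 1 mM EDTA, pH 7.0; 90 min RT; GF/C filtration, scintillation count. Nonspecific binding: PGD2 at […].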
# eosinophils = assay: Eosinophil shape change assay with human plasma; assay type: cell-based; details: Homo sapiens, Eosinophil, human plasma (50%), PGD2 100 nM activation, antagonistic activity
# In short: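 Human polymorphonuclear cells stained with anti-CD49d-APC, combined with compound-preincubated human plasma (50% of final volume, 4×10^6 cells/ml) for 10 min at 37° C., then stimulated 5 min with 100 nM PGD2 and fixed. Flow cytometry scored percent eosinophils with increased forward scatter.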
# Sequence of hCRTH2 receptor (Q9Y5Y4 whole entry): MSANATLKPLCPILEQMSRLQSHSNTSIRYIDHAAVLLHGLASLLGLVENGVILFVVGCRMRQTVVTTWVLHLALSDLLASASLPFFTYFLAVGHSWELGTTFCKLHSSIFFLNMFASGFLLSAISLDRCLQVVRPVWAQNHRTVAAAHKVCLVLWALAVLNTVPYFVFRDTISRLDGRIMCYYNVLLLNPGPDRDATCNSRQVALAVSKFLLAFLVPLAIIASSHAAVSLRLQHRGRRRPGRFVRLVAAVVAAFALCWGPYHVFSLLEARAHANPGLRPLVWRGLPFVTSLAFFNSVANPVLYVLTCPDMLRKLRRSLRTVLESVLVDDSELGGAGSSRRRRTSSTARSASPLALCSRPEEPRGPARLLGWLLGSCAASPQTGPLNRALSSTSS
Compound,pIC50 (hCRTH2 receptor),pIC50 (eosinophils)
"COc1ccc(CC(=O)O)cc1-c1ccc(F)c2c1CN(C(=O)OCc1cccc(F)c1)CC2 [Example 138, 8-(5-Carboxymethyl-2-methoxy-phenyl)-5-fluoro-3,4-dihydro-1H-isoquinoline-2-carboxylic acid 3-fluoro-benzyl ester]",8.27,6.04
"COc1ccc(CC(=O)O)cc1-c1ccc(F)c2c1CN(C(=O)OCc1ccc(F)cc1)CC2 [Example 139, 8-(5-Carboxymethyl-2-methoxy-phenyl)-5-fluoro-3,4-dihydro-1H-isoquinoline-2-carboxylic acid 4-fluoro-benzyl ester]",8.60,7.01
"COc1ccc(CC(=O)O)cc1-c1ccc(F)c2c1CN(C(=O)OCc1ccccc1F)CC2 [Example 146, 8-(5-Carboxymethyl-2-methoxy-phenyl)-5-fluoro-3,4-dihydro-1H-isoquinoline-2-carboxylic acid 2-fluoro-benzyl ester]",8.51,6.58
"COc1ccc(CC(=O)O)cc1-c1ccc(F)c2c1CN(C(=O)OCc1cccc(F)c1F)CC2 [Example 147, 8-(5-Carboxymethyl-2-methoxy-phenyl)-5-fluoro-3,4-dihydro-1H-isoquinoline-2-carboxylic acid 2,3-difluoro-benzyl ester]",8.60,6.21
"COc1ccc(CC(=O)O)cc1-c1ccc(Cl)c2c1CN(C(=O)OCc1ccccc1)CC2 [Example 154, 8-(5-Carboxymethyl-2-methoxy-phenyl)-5-chloro-3,4-dihydro-1H-isoquinoline-2-carboxylic acid benzyl ester]",8.23,6.51
"COc1ccc(CC(=O)O)cc1-c1ccc(F)c2c1CN(C(=O)OCc1ccccc1)CC2 [Example 157, 8-(5-Carboxymethyl-2-methoxy-phenyl)-5-fluoro-3,4-dihydro-1H-isoquinoline-2-carboxylic acid benzyl ester]",7.93,6.82
"O=C(O)COc1ccc(OC(F)(F)F)c(-c2ccc(F)c3c2CN(C(=O)OCc2ccccc2)CC3)c1 [Example 162, 8-(5-Carboxymethoxy-2-trifluoromethoxy-phenyl)-5-fluoro-3,4-dihydro-1H-isoquinoline-2-carboxylic acid benzyl ester]",8.61,6.77
"CC(C)Oc1ccc(OCC(=O)O)cc1-c1ccc(F)c2c1CN(C(=O)OCc1ccccc1)CC2 [Example 163, 8-(5-Carboxymethoxy-2-isopropoxy-phenyl)-5-fluoro-3,4-dihydro-1H-isoquinoline-2-carboxylic acid benzyl ester]",8.10,6.85
"COc1cc(CC(=O)O)ccc1-c1ccc(F)c2c1CN(C(=O)OCc1ccccc1)CC2 [Example 166, 8-(4-Carboxymethyl-2-methoxy-phenyl)-5-fluoro-3,4-dihydro-1H-isoquinoline-2-carboxylic acid benzyl ester]",8.35,6.93
"O=C(O)Cc1cc2c(c(-c3ccc(F)c4c3CN(C(=O)OCc3ccccc3)CC4)c1)OCCO2 [Example 168, 8-(7-Carboxymethyl-2,3-dihydro-benzo[1,4]dioxin-5-yl)-5-fluoro-3,4-dihydro-1H-isoquinoline-2-carboxylic acid benzyl ester]",7.75,6.88
"COc1ccc(CC(=O)O)cc1-c1ccc(C#N)c2c1CN(C(=O)OCc1ccccc1)CC2 [Example 169, 8-(5-Carboxymethyl-2-methoxy-phenyl)-5-cyano-3,4-dihydro-1H-isoquinoline-2-carboxylic acid benzyl ester]",8.04,6.84
"COc1ccc(OCC(=O)O)cc1-c1ccc(F)c2c1CN(C(=O)OCc1ccccc1)CC2 [Example 177, 8-(5-Carboxymethoxy-2-methoxy-phenyl)-5-fluoro-3,4-dihydro-1H-isoquinoline-2-carboxylic acid benzyl ester]",7.67,6.27
